13 molecules from patent US20240343740A1, “MACROCYCLIC GLUCAGON-LIKE PEPTIDE 1 RECEPTOR AGONISTS” (Eli Lilly and Company, priority 2021, published 2024) can be followed below.

For experiment [1], the target named is T1, human GLP-1R (Homo sapiens, UniProt P43220). Nature of the experiment: Human GLP-1 Receptor HEK293 cell cAMP assay, 581 fmol/mg GLP-1R expression density. The experiment is classed as cell-based. On the set-up: expressed in transfected cells; host or cells: HEK293 clonal cell line. Particulars: HEK293 cell line with 581 fmol/mg expression density of GLP-1R; for EC50: geometric mean, read-out: EC50 nM (SEM, n), intracellular cAMP response, relative EC50; for Emax: percent of maximal response to GLP-1(7-36)NH2, arithmetic mean, read-out: Emax % (SEM, n), intracellular cAMP response. As to the method: (§1) Human GLP-1 Receptor HEK293 Cell cAMP Assay
T1 sequence (P43220 24-463): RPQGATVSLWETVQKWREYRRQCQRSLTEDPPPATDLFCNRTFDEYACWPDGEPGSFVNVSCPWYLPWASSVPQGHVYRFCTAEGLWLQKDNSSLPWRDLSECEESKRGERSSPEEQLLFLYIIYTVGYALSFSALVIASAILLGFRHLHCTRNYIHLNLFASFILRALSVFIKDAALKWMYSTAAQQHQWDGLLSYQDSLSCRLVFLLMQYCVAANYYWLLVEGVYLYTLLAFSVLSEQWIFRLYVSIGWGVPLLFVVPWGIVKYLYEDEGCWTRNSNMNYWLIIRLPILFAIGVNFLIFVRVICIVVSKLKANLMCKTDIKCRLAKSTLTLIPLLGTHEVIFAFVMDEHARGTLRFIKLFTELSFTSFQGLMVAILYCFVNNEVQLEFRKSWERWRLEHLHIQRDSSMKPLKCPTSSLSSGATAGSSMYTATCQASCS
(§2) GLP-1 Receptor functional activity is determined using cAMP formation in an HEK293 clonal cell line expressing human GLP-1R (NCBI accession number NP_002053) at an expression density of 581±94 (n=6) and 104±12 (n=5) fmol/mg protein (determined using [^125I]GLP-1(7-36)NH2 homologous competition binding analysis). The hGLP-1R receptor expressing cells are treated with compound (20 point concentration-response curve in DMSO, 2.75-fold Labcyte Echo direct dilution, 384 well plate Corning Cat #3570) in DMEM (Gibco Cat #31053) supplemented with 1× GlutaMAX™ (Gibco Cat #35050), 0.1% bovine casein (Sigma C4765-10ML), 250 μM IBMX (3-Isobutyl-1-methylxanthine, Acros Cat #228420010) and 20 mM HEPES (Gibco Cat #15630) in a 20 μL assay volume (final DMSO concentration is 0.5%). After a 30 min incubation at 37° C., the resulting increase in intracellular cAMP is quantitatively determined using the CisBio cAMP Dynamic 2 HTRF Assay Kit (62AM4PEJ). Briefly, cAMP levels within the cell are detected by adding the cAMP-d2 conjugate in cell lysis buffer (10 μL) followed by the antibody anti-cAMP-Eu^3+-Cryptate, also in cell lysis buffer (10 μL). The resulting competitive assay is incubated for at least 60 min at RT, then detected using a PerkinElmer Envision® instrument with excitation at 320 nm and emission at 665 nm and 620 nm. Envision units (emission at 665 nm/620 nm*10,000) are inversely proportional to the amount of cAMP present and are converted to nM cAMP per well using a cAMP standard curve. The amount of cAMP generated (nM) in each well is converted to a percent of the maximal response observed with human GLP-1(7-36)NH2. A relative EC50 value and percent top (Emax) are derived by non-linear regression analysis using the percent maximal response vs. the concentration of compound added, fitted to a four-parameter logistic equation.
On the technique in general: cAMP levels reflect the balance of adenylyl cyclase and phosphodiesterase activity.

Experiment [2] concerns the target T1, human GLP-1R. Nature of the experiment: Human GLP-1 Receptor HEK293 cell cAMP assay, 104 fmol/mg GLP-1R expression density. The experiment is classed as cell-based. On the set-up: expressed in transfected cells; host or cells: HEK293 clonal cell line. Particulars: HEK293 cell line with 104 fmol/mg expression density of GLP-1R; for EC50: geometric mean, read-out: EC50 nM (SEM, n), intracellular cAMP response, relative EC50; for Emax: percent of maximal response to GLP-1(7-36)NH2, arithmetic mean, read-out: Emax % (SEM, n), intracellular cAMP response. Here is the method: as §1, §2

Molecules are shown by their SMILES.

As usually defined, the EC50 is the concentration giving half of the maximal effect. As a reminder, the Emax is the size of the effect at its maximum, as opposed to the concentration needed. For the molecule `COc1cc(C(=O)O)cc2c1nc(Cc1cc(C)c3cc1OCCCc1cc(C#N)ccc1COc1cccc-3c1)n2C[C@@H]1CCO1` [Example 15, (S)-2-((5^4-Cyano-1^6-methyl-3,9-dioxa-1,2(1,3),5(1,2)-tribenzenacyclononaphane-1^4-yl)methyl)-4-methoxy-1-(oxetan-2-ylmethyl)-1H-benzo[d]imidazole-6-carboxylic acid], the EC50 at human GLP-1R [1] amounted to 6.74 nM; at human GLP-1R [2] it was 26.4 nM. For the same molecule, the figures for the Emax on human GLP-1R [1] and at human GLP-1R [2] were 105% and 82.8%, respectively.
Regarding `Cn1ccc(-c2ccc3c(c2)CCCOc2cc(ccc2Cc2nc4ccc(C(=O)O)cc4n2C[C@@H]2CCO2)-c2cccc(n2)OC3)cc1=O` [Example 79, (S)-2-((5^4-(1-Methyl-2-oxo-1,2-dihydropyridin-4-yl)-3,9-dioxa-2(2,6)-pyridina-1(1,3),5(1,2)-dibenzenacyclononaphane-1^4-yl)methyl)-1-(oxetan-2-ylmethyl)-1H-benzo[d]imidazole-6-carboxylic acid], the half-maximal effective concentration (EC50) on human GLP-1R [1] turned out to be 369 nM; on human GLP-1R [2] it was 648 nM. The Emax came out at 34.7% at human GLP-1R [1] and 9.53% on human GLP-1R [2].
With `COc1cc(C(=O)O)cc2c1nc(Cc1cc(F)c3cc1CCOCc1cc(C#N)ccc1COc1cccc-3n1)n2C[C@@H]1CCO1` [Example 44, (S)-2-((5^4-Cyano-1^6-fluoro-3,7-dioxa-2(2,6)-pyridina-1(1,3),5(1,2)-dibenzenacyclononaphane-1^4-yl)methyl)-4-methoxy-1-(oxetan-2-ylmethyl)-1H-benzo[d]imidazole-6-carboxylic acid], at human GLP-1R [1], the EC50 turned out to be 4.14 nM and the Emax turned out to be 112%. Also, on human GLP-1R [2], the EC50 is 16.4 nM and the Emax came to 85.5%.
Take `COCCOc1cc(C(=O)O)cc2c1nc(Cc1cc(F)c3cc1COCc1cc(C#N)ccc1COc1cccc-3n1)n2C[C@@H]1CCO1` [Example 68, (S)-2-((5^4-Cyano-1^6-fluoro-3,7-dioxa-2(2,6)-pyridina-1(1,3),5(1,2)-dibenzenacyclooctaphane-1^4-yl)methyl)-4-(2-methoxyethoxy)-1-(oxetan-2-ylmethyl)-1H-benzo[d]imidazole-6-carboxylic acid]: on human GLP-1R [1], the EC50 came out at 6.82 nM and the Emax stood at 115%. Also, on human GLP-1R [2], the EC50 was found to be 8.72 nM and the Emax was 98.5%.
Turning to `N#Cc1ccc2c(c1)CCCOc1cc(ccc1Cc1nc3c(F)cc(C(=O)O)cc3n1C[C@@H]1CCO1)-c1cccc(n1)OC2` [Example 7, (S)-2-((5^4-cyano-3,9-dioxa-2(2,6)-pyridina-1(1,3),5(1,2)-dibenzenacyclononaphane-1^4-yl)methyl)-4-fluoro-1-(oxetan-2-ylmethyl)-1H-benzo[d]imidazole-6-carboxylic acid], at human GLP-1R [1], the EC50 amounted to 20.1 nM and the Emax amounted to 104%. For the same molecule, on human GLP-1R [2], the EC50 was found to be 96.8 nM and the Emax was determined as 92.9%.
For `N#Cc1ccc2c(c1)CCCOc1cc(c(F)cc1Cc1nc3ccc(C(=O)O)cc3n1C[C@@H]1CCO1)-c1cccc(n1)NC2` [Example 8, (S)-2-((5^4-Cyano-1^6-fluoro-9-oxa-3-aza-2(2,6)-pyridina-1(1,3),5(1,2)-dibenzenacyclononaphane-1^4-yl)methyl)-1-(oxetan-2-ylmethyl)-1H-benzo[d]imidazole-6-carboxylic acid], in that order: 168 nM, 90.5%, 815 nM and 81.5%.
Turning to `N#Cc1ccc2c(c1)CCCOc1cc(ccc1Cc1nc3ccc(C(=O)O)cc3n1C[C@@H]1CCO1)-c1cccc(n1)OC2` [Example 4, (S)-2-((5^4-Cyano-3,9-dioxa-2(2,6)-pyridina-1(1,3),5(1,2)-dibenzenacyclononaphane-1^4-yl)methyl)-1-(oxetan-2-ylmethyl)-1H-benzo[d]imidazole-6-carboxylic acid], on human GLP-1R [1], the EC50 amounted to 90.6 nM and the Emax is 99.2%. Further, at human GLP-1R [2], the EC50 was found to be 384 nM and the Emax amounted to 78.7%.
For `CNC(=O)c1ccc(-c2ccc3c(c2)CCCOc2cc(ccc2Cc2nc4ccc(C(=O)O)cc4n2C[C@@H]2CCO2)-c2cccc(n2)OC3)cc1` [Example 38, (S)-2-((5^4-(4-(Methylcarbamoyl)phenyl)-3,9-dioxa-2(2,6)-pyridina-1(1,3),5(1,2)-dibenzenacyclononaphane-1^4-yl)methyl)-1-(oxetan-2-ylmethyl)-1H-benzo[d]imidazole-6-carboxylic acid], in that order: 300 nM, 90.1%, 613 nM and 56.9%.
For `Cc1nc(CCOc2cc(C(=O)O)cc3c2nc(Cc2ccc4cc2OCCCc2cc(C#N)ccc2COc2cccc-4n2)n3C[C@@H]2CCO2)co1` [Example 53, (S)-2-((5^4-Cyano-3,9-dioxa-2(2,6)-pyridina-1(1,3),5(1,2)-dibenzenacyclononaphane-1^4-yl)methyl)-4-(2-(2-methyloxazol-4-yl)ethoxy)-1-(oxetan-2-ylmethyl)-1H-benzo[d]imidazole-6-carboxylic acid], in that order: 77.8 nM, 104%, 293 nM and 58%.
In the case of `O=C(O)c1ccc2nc(Cc3ccc4cc3OCCCc3cc(-c5cnn(C6CC6)c5)ccc3COc3cccc-4n3)n(C[C@@H]3CCO3)c2c1` [Example 35, (S)-2-((5^4-(1-Cyclopropyl-1H-pyrazol-4-yl)-3,9-dioxa-2(2,6)-pyridina-1(1,3),5(1,2)-dibenzenacyclononaphane-1^4-yl)methyl)-1-(oxetan-2-ylmethyl)-1H-benzo[d]imidazole-6-carboxylic acid], the values for the EC50 on human GLP-1R [1] and at human GLP-1R [2] were 95.8 nM and 385 nM, respectively. The Emax at human GLP-1R [1] was 112%; at human GLP-1R [2], 88.1%.
Consider `COc1cc(C(=O)O)cc2c1nc(Cc1cc(C)c3cc1OCCCc1cnccc1COc1cccc-3n1)n2C[C@@H]1CCO1` [Example 27, (S)-4-Methoxy-2-((1^6-methyl-3,9-dioxa-2(2,6),5(4,3)-dipyridina-1(1,3)-benzenacyclononaphane-1^4-yl)methyl)-1-(oxetan-2-ylmethyl)-1H-benzo[d]imidazole-6-carboxylic acid], for which, at human GLP-1R [1], the EC50 is 50.7 nM and the Emax amounted to 107%. On human GLP-1R [2], the EC50 was found to be 165 nM and the Emax turned out to be 82.5%.
In the same order, the values of `N#Cc1ccc2cc1CCCOc1cc(c(F)cc1Cc1nc3ccc(C(=O)O)cc3n1C[C@@H]1CCO1)-c1cccc(n1)OC2` [Example 10, (S)-2-((5^4-Cyano-1^6-fluoro-3,9-dioxa-2(2,6)-pyridina-1,5(1,3)-dibenzenacyclononaphane-1^4-yl)methyl)-1-(oxetan-2-ylmethyl)-1H-benzo[d]imidazole-6-carboxylic acid] are 35.3 nM, 107%, 147 nM and 88.9%.
For `COc1cc(C(=O)O)cc2c1nc(Cc1cc(C)c3cc1OCCCc1nc(C(F)(F)F)ccc1COc1cccc-3n1)n2C[C@@H]1CCO1` [Example 26, (S)-4-Methoxy-2-((1^6-methyl-5^6-(trifluoromethyl)-3,9-dioxa-2(2,6),5(3,2)-dipyridina-1(1,3)-benzenacyclononaphane-1^4-yl)methyl)-1-(oxetan-2-ylmethyl)-1H-benzo[d]imidazole-6-carboxylic acid; 1,3,4,6,7,8-hexahydro-2H-pyrimido[1,2-a]pyrimidine], in that order: 1.66 nM, 116%, 5.64 nM and 91.3%.
